These results are taken from patent publication US6642215B2 (Leo Pharma A/S, priority 2001, dated 2003).

For one assay, the system named is NYH SCLC cells. Description: DNA synthesis (tritiated thymidine incorporation) in NYH SCLC cells. The format is cell-based. How it is done: DNA synthesis: NYH SCLC, HT-1080, Colo-320, PC-3 and H460 cells (7.5×10^3 cells/ml) were seeded in tissue culture vessels and the test compound were added 2 h after plating. Following an incubation for 144 h tritiated thymidine (5 CI/mmol, Amersham Pharmacia Biotech) was added to the culture at the concentration of 1 μCi/ml, and the cells were incubated for additional 4 h. The incorporated thymidine was measured with a β-counter. Each compound concentration was tested in triplicate.

Another assay concerns NF-κB. Description: NF-κB-dependent luciferase reporter assay in LPS-stimulated THP-1 cells. The format is cell-based, human. The settings on record: 1 μM compound, then 1 μg/ml LPS 5 h. The source says:
Luciferase plasmids: The NF-κB-luciferase reporter plasmid (pBIIX) was a gift from Marja Jäättelä and Ida S. Mathiasen, the Danish Cancer Society. It was constructed by inserting a synthetic fragment with two copies of the sequence (5′-ACAGAGGGGACTTTCCGAGAG-3′ separated by four nucleotides (5′-ATCT-3′) in front of a mouse fos promoter in a plasmid pfLUC (a pBluescript-based plasmid with a firefly luciferase encoding sequence) (K. Saksela and D. Baltimore, Mol. Cell Biol. 13, 1993, pp. 3698-3705) The NF-κB binding site from the mouse Igκ light chain is underlined (M. Grilli et al., Int. Rev, Cytol. 143, 1993, pp. 1-62). A Renilla luciferase plasmid with a thymidine kinase promoter (pRL-TK vector) was used as a control for transfection efficiency and was obtained from Promega Inc., Madison, Wis. Plasmid DNA was prepared and purified using the QIAGEN EndoToxin-free Maxiprep-500 kit (QIAGEN, Hilden, Germany). […]
The cell lysate was assayed for luciferase activity using the Dual luciferase kit as described by the manufacturer (Promega). […] Firefly luciferase activity was corrected for differences in transfection efficiency by normalizing it to the measured Renilla luciferase activity.
A general note: Reporter assays use an easily measured gene product as a stand-in for the process of interest.

The next assay has as its system HT 1080 Xenografts. The assay can be described thus: HT 1080 xenografts in nude mice, tumour growth. The format is in vivo, NMRI nu/nu mice. The settings on record: HT-1080 xenograft, 50 mg/kg, oral gavage. Here is the method:
All of the animal experiments were conducted according to the guidelines and ethical standards of the Danish Committee for Animal Experiments. Female NMRI nu/nu mice 6 weeks of age were purchased from M&B (Ry, Denmark). The mice were allowed an acclimatisation period of 1-3 weeks before start of the experiments. The nude mice were housed in Scantainers under semi-sterile conditions and all handling of mice was performed in a laminar flow bench.
HT 1080 Xenografts. NMRI nu/nu mice were injected with 2×10^6 cells in 0.2 ml media s.c. in each flank and tumour size was measured as described for the NYH model. Compound A was given for fourteen days by oral gavage from day 4 when the tumour size was 22-24 mm^2. Each treatment group consisted of 10 mice.
Statistical Methods In the animal models, tumour sizes were expressed by the mean of the trends in each treatment group. The trend is the linear increment or tumour size, where tumour size is the square root of the (mean) area of the tumour(s). Comparison with controls was expressed as T/C % and calculated as follows:
A=(overall mean tumour size at baseline+mean trend of treatment*intended days of treatment) […]
Overall mean tumour size at baseline=pooling all treatments this is the mean of all baseline values. For each mouse the baseline value is calculated as the square root of the (mean) area of the tumour(s). […]

In the next assay the test system is IκBα, IκBβ. Description: Western blotting of LPS-induced IκB degradation in THP-1 cells. Format: cell-based, human. To be noted: 1 μM compound 24 h before 1 μg/ml LPS for 10 to 30 min, versus DMSO-treated cells. How it is done: Western blotting: THP-1 cells (5×10^6 cells) were starved overnight at 37° C., 5% CO2 in starvation medium (RPMI 1640 with 2% FBS) including 1 μM of compound A or 0.01% DMSO. The cells were hereafter stimulated with 1 μg/ml LPS (E. coli serotype 055: B5, Sigma-Aldrich Danmark AS, Vallensbaek Strand, Denmark) at the indicated times. Whole cell extracts were prepared in lysis buffer (50 mM HEPES, pH 7.5, 150 mM NaCl, 10 mM EDTA, 10 mM Na4P2O7, 100 mM NaF, 2 mM Na3VO4, 1% Triton-X-100, 0.5 mM Pefabloc (Boehringer Mannheim GmbH, Mannheim, Germany), […]).
A 3×SDS-sample buffer (125 mM Tris/HCl pH 6.8, 4% SDS, 20% glycerol, 0.025% bromphenol blue, 10% DTT) was added to 200 μl of clarified cell lysate, and the sample (20 μl) was boiled and electrophoresed on a 12% SDS-polyacrylamide gel. The primary antibodies (anti-IκBα, anti-IκBβ, anti-cdk-7; all from Santa Cruz Biotechnology Inc., Heidelberg, Germany) were diluted 1:1000. The secondary antibody (anti-rabbit-HRP from DAKO A/S, Glostrup, Denmark) was used in a 1:2000 dilution. […] The relative amounts of the transferred proteins were quantified by using the ImageQuant Software (Molecular Dynamics, Sunnyvale, Calif., USA) by scanning the autoradiographic films and normalized to the related cdk-7 amounts.
On the technique in general: In western blotting, separated proteins are transferred to a membrane and probed.

Read-outs that look alike come from different tables or passages of the source.

For `N#CNC(=Nc1ccncc1)NCCCCCCOc1ccc(Cl)cc1` [compound A, N-(6-(4-chlorophenoxy)hexyl)-N′-cyano-N″-(4-pyridyl)guanidine], the IC50 turned out to be 0.64 ± 0.06 nM with NYH SCLC cells (NYH SCLC cells, 144 h incubation, mean ± SD of two to four experiments, read-out: DNA synthesis (IC50 nM)) and 0.64 ± 0.06 nM in the assay on NYH SCLC cells (incorporation of tritiated thymidine in NYH SCLC cells, read-out: NYH proliferation in vitro (IC50 nM)). The “NF-κB-dependent luciferase activity, change” value in the assay on NF-κB (preincubation 2 h) is listed as “small decrease”. Also, in the assay on NF-κB (preincubation 24 h, relative to DMSO-treated cells), the “NF-κB-dependent induction of luciferase expression blocked” value is roughly 80%. For the same molecule, in the assay with HT 1080 Xenografts, the “In vivo xenografts in nude mice T/C (%)” value is listed as −77%. Besides, in the assay on IκBα, IκBβ, the “LPS-induced IκB degradation” value was “much slower rate”.
